Data published in patent US20040058999A1, “Compounds with anti-hiv activity” (priority 2002, published 2004).
Read-outs that look alike come from different tables or passages of the source.

Experiments:
[1] = system: various Arborvirus, Poxvirus, Nitavirus and Myxovirus strains; settings: in words; cited from earlier work
[2] = system: HIV virus; experiment: Viral growth curve in infected lymphoblasts cultures in the presence of the tested compounds; assay type: cell-based
Description: (§1) Lymphoblasts cultures in stationary tubes (inoculum 200,000 cells/ml) at the 4th day from implant were used. A lactalbumin medium enriched with 20% decomplemented calf serum medium was used as culture medium (TC) and, as maintaining medium (TM), after infection of the cultures, a 199 supplemented with 1% bovine crystallized albumin and 2% calf serum was used. All media were added with penicillin (100 U.I/ml) and streptomycin (100 μg/ml). Viral dilutions were carried out with 199 only.
Xenalamine (p-α-ethoxy-p-phenyl-phenacylaminobenzoic acid), xenalic acid (p-(4-biphenyl-glyoxylidene)-amino-benzoic acid) at a 12.5 μg dose; xenaldial (4,4′-bis-diphenylglyoxal hydrate) at a 25 μg dose.
The following procedure was used to evaluate the viral growth curve in the presence of the tested compounds: cultures were infected with 1 ml of viral fluid containing a cytopathogenic dose to obtain an about 1:1 LD50/cell ratio. 1 Hour after the infection at +36° C. and repeated washings with Hanks balanced saline solution, the viral fluid was replaced with TM for the control groups and with TM+drug for the tested cultures.
At time intervals, aliquots from three cultures were taken, washed with Hanks solution, then added with 1 ml of TM and frozen at −30° C.
At the end of the experiment, the culture fluids were thawed and refrozen twice, pooling each aliquot, then titred simultaneously with the corresponding fluids separated before freezing.

[3] = system: Lymphoblasts cultures; experiment: Maximal dose tolerated by the cultures; assay type: cell-based; settings: established in previous experiments
Description: as §1
The dose used for each drug is the maximal dose tolerated by the cultures, established in previous experiments.

[4] = system: A-PR8 Influenza virus; settings: in words; cited from earlier work
[5] = system: HTLV IIIB; experiment: HTLV IIIB-inhibitory activity on cultures of lymphocytes, % virus inhibition by PCR; assay type: cell-based
Description: HTLV IIIB-inhibitory activity of Xenaldial was tested on cultures of lymphocytes. The % virus inhibition was determined by means of PCR, according to the following procedure:
DNA was extracted from 5×10^4 lymphocytes using 400 μl lysate and incubating at 56° C./60′ and at 92° C./15′. Afterwards the mixture was cooled at room temperature and kept at 4° C.
The oligonucleotide SK19 (41 bases—corresponding to the internal sequence of the amplified pro-viral DNA) was synthesised, dissolved in water at a final concentration of 20 μm and 5′-labelled with polynucleotide kinase and ^32P-ATP.
Reagent preparation: Nucleotides: 125 μl of each nucleotide 10 mM were diluted to 1 ml with H2O (final concentration 1.25 mM); buffer 10×: KCl 2M—250 μl, TrisCl 1M pH8.3—100 μl, MgCl2 1M—20 μl, gelatine—10 mg, diluted to 1 ml with H2O;
Oligonucleotide pair: oligonucleotides SK38 and 39 were synthesised, purified and dissolved in a concentration of 200-300 μM.
Reaction: mixing buffer 10×, nucleotides (1.25 mM), oligonucleotide primer SK38 and SK39 15 μM, lysate, Taq polymerase 5 U/μl; denaturation 90° C./60′, annealing 55° C./30′, polymerisation 72° C./30′; repeat the cycle 30 times.

[6] = system: HIV virus; assay type: cell-based; settings: for Neutralization Index: 200 μg/ml, 37°-1 h; for Viral titre after incubation at 37°-1 h with 200 μg/ml of drug: mean of 3 experiments
[7] = system: MHV-3 hepatitis virus; settings: in words; cited from earlier work

## O.O.O=CC(=O)c1ccc(-c2ccc(C(=O)C=O)cc2)cc1 [xenaldial, 4-4′-bis-biphenylglyoxal dihydrate]
[1]
  antiviral activity: active
[2]; drug added 1 h after infection, xenalamine 12.5 μg/ml, xenaldial 25 μg/ml
  delay in the appearance of the virus in fluids compared with controls: 24 h
[2]; xenaldial 25 μg/ml added 1 h and again 48 hours after the infection
  reduction of the intra- and extracellular virus amount compared with controls, time up to which observed: up to 120 hours
[3]
  maximal dose tolerated by the cultures: 25 µg
[4]
  antiviral activity: active
[5]; 0.001 μM
  Inhibition %: 44%
[5]; 0.01 μM
  Inhibition %: 30%
[5]; 0.1 μM
  Inhibition %: 12%
[5]; 1 μM
  Inhibition %: 16%
[5]; 5 μM
  Inhibition %: 42%
[5]; 20 μM
  Inhibition %: 26%
[5]; 60 μM
  Inhibition %: 59%
[5]; 100 μM
  Inhibition %: 77%
[6]; high viral titre
  reduction of the pathogenic activity of the virus upon exposure (% of the logarithmic values compared with controls): 8.3%
[6]; high viral titre (starting stock 6.5)
  Neutralization Index: 0.5
[6]; high viral titre: starting stock titre 6.5, control after incubation 6.2
  Viral titre after incubation at 37°-1 h with 200 μg/ml of drug: 6.0
[6]; in words
  virucidal activity (on extracellular viral particles): marked virucidal activity
[6]; low viral titre
  reduction of the pathogenic activity of the virus upon exposure (% of the logarithmic values compared with controls): 42.8%
[6]; low viral titre (starting stock 4.5)
  Neutralization Index: 1.5
[6]; low viral titre: starting stock titre 4.5, control after incubation 3.5
  Viral titre after incubation at 37°-1 h with 200 μg/ml of drug: 2.0
[7]
  antiviral activity: active

## O=C(O)c1ccc(N=CC(=O)c2ccc(-c3ccccc3)cc2)cc1 [xenalic acid, p-(4-biphenyl-glyoxylidene)-amino-benzoic acid]
[2]; same experimental conditions, compared with xenaldial
  inhibitory effect on intracellular viral replication: lower than that of xenaldial
[3]
  maximal dose tolerated by the cultures: 12.5 µg
[6]
  virucidal activity (on extracellular viral particles): marked virucidal activity
